PubChem BioAssay (NCI)
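96-well plates; 48 h exposure; 5 concentrations. Endpoints by linear interpolation between flanking doses. Not reached: highest tested concentration assigned. GI50 = concentration required for 50% inhibition of growth. Definition used: TGI = concentration required for complete inhibition of growth.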

Tests used:
Assay in all cases: DTP human tumour cell line panel, 48 h
786-0 renal = test system: 786-0 renal
A498 renal = test system: A498 renal
A549 NSCLC = test system: A549 NSCLC
ACHN renal = test system: ACHN renal
BT-549 breast = test system: BT-549 breast
CCRF-CEM leukemia = test system: CCRF-CEM leukemia
COLO 205 colon = test system: COLO 205 colon
DU-145 prostate = test system: DU-145 prostate
EKVX NSCLC = test system: EKVX NSCLC
HCC-2998 colon = test system: HCC-2998 colon
HCT-116 colon = test system: HCT-116 colon
HCT-15 colon = test system: HCT-15 colon
HL-60(TB) leukemia = test system: HL-60(TB) leukemia
HOP-62 NSCLC = test system: HOP-62 NSCLC
HOP-92 NSCLC = test system: HOP-92 NSCLC
HS 578T breast = test system: HS 578T breast
HT29 colon = test system: HT29 colon
IGROV1 ovarian = test system: IGROV1 ovarian
K-562 leukemia = test system: K-562 leukemia
KM12 colon = test system: KM12 colon
LOX IMVI melanoma = test system: LOX IMVI melanoma
M14 melanoma = test system: M14 melanoma
MALME-3M melanoma = test system: MALME-3M melanoma
MCF7 breast = test system: MCF7 breast
MDA-MB-231 breast = test system: MDA-MB-231 breast
MDA-MB-435 = test system: MDA-MB-435
MOLT-4 leukemia = test system: MOLT-4 leukemia
NCI-H226 lung = test system: NCI-H226 lung
NCI-H23 lung = test system: NCI-H23 lung
NCI-H460 lung = test system: NCI-H460 lung
NCI-H522 lung = test system: NCI-H522 lung
NCI/ADR-RES ovarian = test system: NCI/ADR-RES ovarian
OVCAR-3 ovarian = test system: OVCAR-3 ovarian
OVCAR-4 ovarian = test system: OVCAR-4 ovarian
OVCAR-5 ovarian = test system: OVCAR-5 ovarian
OVCAR-8 ovarian = test system: OVCAR-8 ovarian
PC-3 prostate = test system: PC-3 prostate
RPMI-8226 leukemia = test system: RPMI-8226 leukemia
RXF 393 renal = test system: RXF 393 renal
SF-268 CNS = test system: SF-268 CNS
SF-295 CNS = test system: SF-295 CNS
SF-539 CNS = test system: SF-539 CNS
SK-MEL-2 melanoma = test system: SK-MEL-2 melanoma
SK-MEL-28 melanoma = test system: SK-MEL-28 melanoma
SK-MEL-5 melanoma = test system: SK-MEL-5 melanoma
SK-OV-3 ovarian = test system: SK-OV-3 ovarian
SN12C renal = test system: SN12C renal
SNB-19 CNS = test system: SNB-19 CNS
SNB-75 CNS = test system: SNB-75 CNS
SR leukemia = test system: SR leukemia
SW-620 colon = test system: SW-620 colon
T-47D breast = test system: T-47D breast
TK-10 renal = test system: TK-10 renal
U251 CNS = test system: U251 CNS
UACC-257 melanoma = test system: UACC-257 melanoma
UACC-62 melanoma = test system: UACC-62 melanoma
UO-31 renal = test system: UO-31 renal

C=C(C=O)C1CCC2(C(=O)O)CCC3(C)C(CCC4C5(C)CCC(O)C(C)(C)C5CCC43C)C12 (centres undefined)
GI50 (786-0 renal): 2.48 µM
TGI (786-0 renal): 6.73 µM
GI50 (A498 renal): 4.77 µM
TGI (A498 renal): 14.4 µM
GI50 (A549 NSCLC): 4.58 µM
TGI (A549 NSCLC): 28.7 µM
GI50 (ACHN renal): 1.69 µM
TGI (ACHN renal): 3.23 µM
GI50 (BT-549 breast): 1.68 µM
TGI (BT-549 breast): 6.67 µM
GI50 (CCRF-CEM leukemia): 2.68 µM
TGI (CCRF-CEM leukemia): > 46.6 µM
GI50 (COLO 205 colon): 2.64 µM
TGI (COLO 205 colon): 6.18 µM
GI50 (DU-145 prostate): 1.6 µM
TGI (DU-145 prostate): 3.55 µM
GI50 (EKVX NSCLC): 6.23 µM
TGI (EKVX NSCLC): > 61.7 µM
GI50 (HCC-2998 colon): 1.93 µM
TGI (HCC-2998 colon): 3.36 µM
GI50 (HCT-116 colon): 1.4 µM
TGI (HCT-116 colon): 2.83 µM
GI50 (HCT-15 colon): 1.65 µM
TGI (HCT-15 colon): 4.47 µM
GI50 (HL-60(TB) leukemia): 4.1 µM
TGI (HL-60(TB) leukemia): > 100 µM
GI50 (HOP-62 NSCLC): 4.93 µM
TGI (HOP-62 NSCLC): 19.7 µM
GI50 (HOP-92 NSCLC): 19.7 µM
TGI (HOP-92 NSCLC): 64.6 µM
GI50 (HS 578T breast): 10.1 µM
TGI (HS 578T breast): > 100 µM
GI50 (HT29 colon): 2.65 µM
TGI (HT29 colon): 7.39 µM
GI50 (IGROV1 ovarian): 1.92 µM
TGI (IGROV1 ovarian): 4.21 µM
GI50 (K-562 leukemia): 2.72 µM
TGI (K-562 leukemia): > 100 µM
GI50 (KM12 colon): 1.61 µM
TGI (KM12 colon): 3.39 µM
GI50 (LOX IMVI melanoma): 1.57 µM
TGI (LOX IMVI melanoma): 3.11 µM
GI50 (M14 melanoma): 2.23 µM
TGI (M14 melanoma): 6.92 µM
GI50 (MALME-3M melanoma): 2.33 µM
TGI (MALME-3M melanoma): 7.99 µM
GI50 (MCF7 breast): 2.76 µM
TGI (MCF7 breast): 14.3 µM
GI50 (MDA-MB-231 breast): 4.92 µM
TGI (MDA-MB-231 breast): 50.4 µM
GI50 (MDA-MB-435): 2.74 µM
TGI (MDA-MB-435): 24.3 µM
GI50 (MOLT-4 leukemia): 3.79 µM
TGI (MOLT-4 leukemia): > 100 µM
GI50 (NCI-H226 lung): 14.3 µM
TGI (NCI-H226 lung): > 100 µM
GI50 (NCI-H23 lung): 1.63 µM
TGI (NCI-H23 lung): 3.3 µM
GI50 (NCI-H460 lung): 2.05 µM
TGI (NCI-H460 lung): 4.43 µM
GI50 (NCI-H522 lung): 1.96 µM
TGI (NCI-H522 lung): 5 µM
GI50 (NCI/ADR-RES ovarian): 1.79 µM
TGI (NCI/ADR-RES ovarian): 5.57 µM
GI50 (OVCAR-3 ovarian): 1.44 µM
TGI (OVCAR-3 ovarian): 2.87 µM
GI50 (OVCAR-4 ovarian): 4.83 µM
TGI (OVCAR-4 ovarian): 22.2 µM
GI50 (OVCAR-5 ovarian): 2.99 µM
TGI (OVCAR-5 ovarian): 6.82 µM
GI50 (OVCAR-8 ovarian): 4.09 µM
TGI (OVCAR-8 ovarian): 32.2 µM
GI50 (PC-3 prostate): 2.76 µM
TGI (PC-3 prostate): 23.2 µM
GI50 (RPMI-8226 leukemia): 2.64 µM
TGI (RPMI-8226 leukemia): > 100 µM
GI50 (RXF 393 renal): 1.34 µM
TGI (RXF 393 renal): 2.99 µM
GI50 (SF-268 CNS): 2.15 µM
TGI (SF-268 CNS): 10.5 µM
GI50 (SF-295 CNS): 3.39 µM
TGI (SF-295 CNS): 15.1 µM
GI50 (SF-539 CNS): 2.83 µM
TGI (SF-539 CNS): 8.06 µM
GI50 (SK-MEL-2 melanoma): 3.82 µM
TGI (SK-MEL-2 melanoma): 12 µM
GI50 (SK-MEL-28 melanoma): 1.96 µM
TGI (SK-MEL-28 melanoma): 4.62 µM
GI50 (SK-MEL-5 melanoma): 1.52 µM
TGI (SK-MEL-5 melanoma): 2.84 µM
GI50 (SK-OV-3 ovarian): 7.37 µM
TGI (SK-OV-3 ovarian): 19.6 µM
GI50 (SN12C renal): 4.09 µM
TGI (SN12C renal): > 89.9 µM
GI50 (SNB-19 CNS): 8.18 µM
TGI (SNB-19 CNS): 20.8 µM
GI50 (SNB-75 CNS): 10.8 µM
TGI (SNB-75 CNS): 32.6 µM
GI50 (SR leukemia): 2.23 µM
TGI (SR leukemia): > 100 µM
GI50 (SW-620 colon): 1.99 µM
TGI (SW-620 colon): 5.07 µM
GI50 (T-47D breast): 5.19 µM
TGI (T-47D breast): 34.1 µM
GI50 (TK-10 renal): 4.04 µM
TGI (TK-10 renal): 18.1 µM
GI50 (U251 CNS): 1.64 µM
TGI (U251 CNS): 3.74 µM
GI50 (UACC-257 melanoma): 2.05 µM
TGI (UACC-257 melanoma): 5.48 µM
GI50 (UACC-62 melanoma): 1.64 µM
TGI (UACC-62 melanoma): 3.57 µM
GI50 (UO-31 renal): 0.627 µM
TGI (UO-31 renal): 2.16 µM
